Test results taken from patent US8173689B2 (Novartis AG, priority 2006, dated 2012).
Like-named read-outs stand apart in the source and are kept apart here.

Experiments:
[1] = biological target: T1, cytoplasmic domain of the human CSF-1R (Homo sapiens, UniProt P07333); test: In vitro kinase assay for colony stimulating factor-1 receptor (AlphaScreen); assay type: biochemical; details: tested at about 1 μM, read-out: CSF-1R percent inhibition
T1 construct: Recombinant protein corresponding to the cytoplasmic domain of the human CSF-1R; purchased Invitrogen Corporation, Carlsbad, Calif; PV3249
T1 sequence (P07333 539-972 limits assumed): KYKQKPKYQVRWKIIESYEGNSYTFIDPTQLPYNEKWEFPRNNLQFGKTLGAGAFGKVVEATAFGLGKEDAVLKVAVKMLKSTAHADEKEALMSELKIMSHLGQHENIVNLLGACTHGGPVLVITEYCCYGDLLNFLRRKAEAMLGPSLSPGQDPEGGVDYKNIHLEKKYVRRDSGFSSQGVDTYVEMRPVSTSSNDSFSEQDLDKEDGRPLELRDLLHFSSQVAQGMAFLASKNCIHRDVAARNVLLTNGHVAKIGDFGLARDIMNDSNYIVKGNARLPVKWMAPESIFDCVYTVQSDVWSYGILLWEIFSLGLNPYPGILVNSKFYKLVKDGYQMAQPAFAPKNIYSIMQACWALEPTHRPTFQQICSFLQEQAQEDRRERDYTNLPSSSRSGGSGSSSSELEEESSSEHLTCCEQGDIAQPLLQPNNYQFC
Outline: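 Tyrosine phosphorylation of a peptide substrate by 4 nM recombinant cytoplasmic-domain enzyme is measured at 1 μM ATP in Mn2+/Mg2+-containing Hepes buffer, pH 7.5. Detection uses PT66 AlphaScreen beads after overnight incubation.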

[2] = biological target: T2, full-length human CSF-1R receptor (Homo sapiens, UniProt P07333); test: In vitro inhibition of CSF-1R receptor tyrosine phosphorylation in transfected HEK293H cells stimulated with MCSF; assay type: cell-based; details: HEK293-H, tested at about 1 μM, read-out: pCSF1R percent inhibition
T2 construct: transfected with the full-length human CSF-1R receptor cloned in house; expressed in transfected cells; host or cells: HEK293H (Invitrogen Cat. #11631017)
Experimental: The lysate was then transferred to total CSF-1R antibody coated 96-well plates that had already been blocked with 3% Blocker A from Mesoscale discovery (MSD) for 2 hours and washed afterwards. Lysates were incubated overnight at 4° C. and the plates were then washed 4× with MSD Tris Wash Buffer. […] The plates were read on the Sector 6000 instrument (MSD). Raw data was imported in Abase and EC50s calculated with XL-fit data analysis software.

kinase domain of cKIT = biological target: T3, kinase domain of cKIT (Homo sapiens, UniProt P10721); test: Inhibition of cKIT kinase signaling in an in vitro biochemical assay (alphascreen); details: tested at about 1 μM, read-out: cKit percent inhibition
T3 construct: The kinase domain of cKIT was assayed in 50 mM Hepes; purchased Upstate 14-559

kinase domain of PDGFRβ = biological target: T4, kinase domain of PDGFRβ (Homo sapiens, UniProt P09619); test: Inhibition of PDGFRb kinase signaling in an in vitro biochemical assay (alphascreen); details: tested at about 1 μM, read-out: PDGFRβ percent inhibition
T4 construct: The kinase domain of PDGFRβ was assayed in 50 mM Hepes; purchased Invitrogen P3082

[3] = tested on: MNFS60 (murine AML cells); test: Cell viability assay in MCSF dependent MNFS60 cells (Cell Titer Glo); assay type: cell-based; details: Mus musculus, tested at about 1 μM, read-out: M-NFS-60 CP percent inhibition
Outline: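 MNFS60 cells grown with 10 ng/ml MCSF (final) were exposed for 72 hrs at 37° C., 5% CO2 to 3-fold serial compound dilutions. Viable cells were measured by Cell Titer Glo luminescence, in triplicate, and EC50s were derived by curve fitting.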

T3 sequence (P10721 589-937 limits assumed): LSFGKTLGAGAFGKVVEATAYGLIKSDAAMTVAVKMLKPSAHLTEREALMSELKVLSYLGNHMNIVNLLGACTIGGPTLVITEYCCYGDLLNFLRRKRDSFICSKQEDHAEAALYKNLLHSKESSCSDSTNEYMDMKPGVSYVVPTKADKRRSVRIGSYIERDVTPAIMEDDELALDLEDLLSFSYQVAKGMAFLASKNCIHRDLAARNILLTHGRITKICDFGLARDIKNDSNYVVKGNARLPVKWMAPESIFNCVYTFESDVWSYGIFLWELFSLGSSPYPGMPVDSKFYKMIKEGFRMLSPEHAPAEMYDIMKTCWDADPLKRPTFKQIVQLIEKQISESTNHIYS
T2 sequence (P07333 20-972): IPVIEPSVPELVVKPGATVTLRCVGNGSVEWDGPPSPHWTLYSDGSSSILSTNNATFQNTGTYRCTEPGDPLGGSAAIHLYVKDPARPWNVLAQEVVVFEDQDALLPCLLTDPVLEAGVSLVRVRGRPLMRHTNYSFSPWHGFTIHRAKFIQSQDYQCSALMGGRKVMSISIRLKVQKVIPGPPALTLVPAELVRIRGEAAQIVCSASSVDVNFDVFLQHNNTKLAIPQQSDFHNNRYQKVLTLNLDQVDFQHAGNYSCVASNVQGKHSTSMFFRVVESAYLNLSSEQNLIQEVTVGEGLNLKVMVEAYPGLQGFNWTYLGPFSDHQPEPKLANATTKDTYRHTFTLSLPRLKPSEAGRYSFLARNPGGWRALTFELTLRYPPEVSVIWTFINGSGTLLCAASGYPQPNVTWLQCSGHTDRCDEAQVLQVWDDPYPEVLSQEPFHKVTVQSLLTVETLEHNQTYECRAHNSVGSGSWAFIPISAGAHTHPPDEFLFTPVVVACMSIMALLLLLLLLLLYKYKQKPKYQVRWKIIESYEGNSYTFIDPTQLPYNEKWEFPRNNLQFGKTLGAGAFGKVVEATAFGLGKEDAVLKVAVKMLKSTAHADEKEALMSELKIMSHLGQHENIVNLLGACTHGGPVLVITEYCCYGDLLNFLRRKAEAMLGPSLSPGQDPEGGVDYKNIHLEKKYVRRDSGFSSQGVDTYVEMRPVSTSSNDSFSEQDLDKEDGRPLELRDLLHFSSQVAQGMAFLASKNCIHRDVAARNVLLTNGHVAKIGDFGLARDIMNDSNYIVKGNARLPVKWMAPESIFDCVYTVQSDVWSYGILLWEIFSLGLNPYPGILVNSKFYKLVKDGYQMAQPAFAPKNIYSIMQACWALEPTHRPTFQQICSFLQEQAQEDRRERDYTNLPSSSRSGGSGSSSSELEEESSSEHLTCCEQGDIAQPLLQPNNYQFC
T4 sequence (P09619 600-962 limits assumed): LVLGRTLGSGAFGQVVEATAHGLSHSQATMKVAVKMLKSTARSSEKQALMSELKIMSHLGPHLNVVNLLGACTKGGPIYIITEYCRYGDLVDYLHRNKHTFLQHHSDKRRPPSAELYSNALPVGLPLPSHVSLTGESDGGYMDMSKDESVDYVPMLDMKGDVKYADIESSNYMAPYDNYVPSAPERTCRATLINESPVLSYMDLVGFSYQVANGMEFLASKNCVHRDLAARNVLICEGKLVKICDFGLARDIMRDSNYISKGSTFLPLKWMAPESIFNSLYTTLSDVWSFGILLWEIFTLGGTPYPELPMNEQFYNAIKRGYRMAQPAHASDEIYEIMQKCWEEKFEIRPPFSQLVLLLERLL

With `CNC(=O)c1cc(Oc2ccc3nc(NCC4CCCCC4)sc3c2)ccn1` [Compound 128, 4-[2-(Cyclohexylmethyl-amino)-benzothiazol-6-yloxy]-pyridine-2-carboxylic acid methylamide] the inhibition at 1 µM [1] was 100%, the inhibition at 1 µM ([2]; HEK293H cells) was 95% and the inhibition at 1 µM (kinase domain of cKIT) was 90%. The inhibition at 1 µM (kinase domain of PDGFRβ) was 83% and the inhibition at 1 µM ([3]; MNFS60 cells) was 95%.

With `CNC(=O)c1cc(Oc2ccc3nc(N[C@H]4CCCN(C(=O)C(C)C)C4)sc3c2)ccn1` [Example 334, (S)-4-(2-(1-isobutyrylpiperidin-3-ylamino)benzo[d]thiazol-6-yloxy)-N-methylpicolinamide] the inhibition at 1 µM [1] was 100%, the inhibition at 1 µM ([2]; HEK293H cells) was 71% and the inhibition at 1 µM (kinase domain of cKIT) was 20%. It also gave an inhibition at 1 µM (kinase domain of PDGFRβ) of 15% and an inhibition at 1 µM ([3]; MCSF dependent MNFS60 cells) of 67%.

Work on `c1ccc2c(Oc3ccc4nc(N[C@@H]5C[C@H]6CC[C@@H]5C6)sc4c3)ccnc2c1` [Example 251, N-((1R,2R,4S)-bicyclo[2.2.1]heptan-2-yl)-6-(quinolin-4-yloxy)benzo[d]thiazol-2-amine] yielded an inhibition at 1 µM ([1]; compounds of Table 3) of 100%, an inhibition at 1 µM ([2]; compounds of Table 3) of 74% and an inhibition at 1 µM (kinase domain of cKIT; compounds of Table 3) of 56%. It also gave an inhibition at 1 µM (kinase domain of PDGFRβ; compounds of Table 3) of 28% and an inhibition at 1 µM ([3]; compounds of Table 3) of 80%.

With `CNC(=O)c1cc(Oc2ccc3nc(NCC4CCCCO4)sc3c2)ccn1` (stereo not drawn) [Example 370, N-methyl-4-(2-((tetrahydro-2H-pyran-2-yl)methylamino)benzo[d]thiazol-6-yloxy)picolinamide] the inhibition at 1 µM [1] was 100%, the inhibition at 1 µM ([2]; HEK293H cells) was 81% and the inhibition at 1 µM (kinase domain of cKIT) was 64%. For the same compound, the inhibition at 1 µM (kinase domain of PDGFRβ) was 34% and the inhibition at 1 µM ([3]; MCSF dependent MNFS60 cells) was 60%.

Compound `Nc1ccc(-c2cc(Oc3ccc4nc(N[C@@H]5CCCC[C@H]5O)sc4c3)ccn2)cn1` [Example 261, (1R,2R)-2-(6-(6'-amino-2,3'-bipyridin-4-yloxy)benzo[d]thiazol-2-ylamino)cyclohexanol] has an inhibition at 1 µM ([1]; compounds of Table 3) of 100%, an inhibition at 1 µM ([2]; compounds of Table 3) of 98% and an inhibition at 1 µM (kinase domain of cKIT; compounds of Table 3) of 25%. It also gave an inhibition at 1 µM (kinase domain of PDGFRβ; compounds of Table 3) of 30% and an inhibition at 1 µM ([3]; compounds of Table 3) of 100%.

With `CCc1nc(-c2cc(Oc3ccc4nc(N[C@@H](C)C5CCCCC5)sc4c3)ccn2)[nH]c1C` [Example 270, (S)-N-(1-cyclohexylethyl)-6-(2-(4-ethyl-5-methyl-1H-imidazol-2-yl)pyridin-4-yloxy)benzo[d]thiazol-2-amine] the inhibition at 1 µM ([1]; compounds of Table 3) was 98%, the inhibition at 1 µM ([2]; compounds of Table 3) was 74% and the inhibition at 1 µM (kinase domain of cKIT; compounds of Table 3) was 21%. For the same compound, the inhibition at 1 µM (kinase domain of PDGFRβ; compounds of Table 3) was 11% and the inhibition at 1 µM ([3]; compounds of Table 3) was 50%.

`CNC(=O)c1cc(Oc2ccc3nc(NC4CCCc5ccccc54)oc3c2)ccn1` (stereo not drawn) [Compound 104, 4-[2-(1,2,3,4-Tetrahydro-naphthalen-1-ylamino)-benzooxazol-6-yloxy]-pyridine-2-carboxylic acid methylamide] was tested, and the inhibition at 1 µM [1] was 99%, the inhibition at 1 µM ([2]; HEK293H cells) was 63% and the inhibition at 1 µM (kinase domain of cKIT) was 18%. For the same compound, the inhibition at 1 µM (kinase domain of PDGFRβ) was 10% and the inhibition at 1 µM ([3]; MNFS60 cells) was 47%.

`CNC(=O)c1cc(Oc2ccc3nc(NCc4ccncc4)sc3c2)ccn1` [Compound 139] showed an inhibition at 1 µM ([1]; compounds of Table 3) of 100%, an inhibition at 1 µM ([2]; compounds of Table 3) of 88% and an inhibition at 1 µM (kinase domain of cKIT; compounds of Table 3) of 24%. It also gave an inhibition at 1 µM (kinase domain of PDGFRβ; compounds of Table 3) of 19% and an inhibition at 1 µM ([3]; compounds of Table 3) of 46%.

`CNC(=O)c1cc(Oc2ccc3nc(NCc4cccnc4)sc3c2)ccn1` [Compound 154, 4-{2-[(Pyridin-3-ylmethyl)-amino]-benzothiazol-6-yloxy}-pyridine-2-carboxylic acid methylamide] gave an inhibition at 1 µM [1] of 99%, an inhibition at 1 µM ([2]; HEK293H cells) of 93% and an inhibition at 1 µM (kinase domain of cKIT) of 17%. It also gave an inhibition at 1 µM (kinase domain of PDGFRβ) of 18% and an inhibition at 1 µM ([3]; MNFS60 cells) of 48%.

With `Cn1cc(-c2cc(Oc3ccc4nc(N[C@@H]5c6ccccc6C[C@@H]5O)sc4c3)ccn2)cn1` [Example 348, (1R,2S)-1-(6-(2-(1-methyl-1H-pyrazol-4-yl)pyridin-4-yloxy)benzo[d]thiazol-2-ylamino)-2,3-dihydro-1H-inden-2-ol] the inhibition at 1 µM [1] was 100%, the inhibition at 1 µM ([2]; HEK293H cells) was 90% and the inhibition at 1 µM (kinase domain of cKIT) was 47%. For the same compound, the inhibition at 1 µM (kinase domain of PDGFRβ) was 55% and the inhibition at 1 µM ([3]; MCSF dependent MNFS60 cells) was 100%.

`CNC(=O)c1cc(Oc2ccc3nc(NCc4c(F)cccc4F)sc3c2)ccn1` [Compound 149, 4-[2-(2,6-Difluoro-benzylamino)-benzothiazol-6-yloxy]-pyridine-2-carboxylic acid methylamide] showed an inhibition at 1 µM [1] of 99%, an inhibition at 1 µM ([2]; HEK293H cells) of 92% and an inhibition at 1 µM (kinase domain of cKIT) of 4%. It also gave an inhibition at 1 µM (kinase domain of PDGFRβ) of 0% and an inhibition at 1 µM ([3]; MNFS60 cells) of 67%.

`CNC(=O)c1cc(Oc2ccc3nc(N[C@@H](CO)C4CCCCC4)oc3c2)ccn1` [Compound 67, 4-[2-((R)-1-Cyclohexyl-2-hydroxy-ethylamino)-benzo-oxazol-6-yloxy]-pyridine-2-carboxylic acid methylamide] was tested, and the inhibition at 1 µM [1] was 97%, the inhibition at 1 µM ([2]; HEK293H cells) was 0% and the inhibition at 1 µM (kinase domain of cKIT) was 8%. It also gave an inhibition at 1 µM (kinase domain of PDGFRβ) of 1% and an inhibition at 1 µM ([3]; MNFS60 cells) of 10%.

Work on `O[C@@H]1CCCC[C@H]1Nc1nc2ccc(Oc3ccnc(-c4ccc(CN5CCOCC5)cc4)c3)cc2s1` [Cmpd 168, (1R,2R)-2-(6-(2-(4-(morpholinomethyl)phenyl)pyridin-4-yloxy)benzo[d]thiazol-2-ylamino)cyclohexanol] yielded an inhibition at 1 µM ([1]; compounds of Table 3) of 100%, an inhibition at 1 µM ([2]; compounds of Table 3) of 99% and an inhibition at 1 µM (kinase domain of cKIT; compounds of Table 3) of 40%. The inhibition at 1 µM (kinase domain of PDGFRβ; compounds of Table 3) was 43% and the inhibition at 1 µM ([3]; compounds of Table 3) was 100%.

In the case of `CNC(=O)c1cc(Oc2ccc3nc(N[C@@H](C)c4ccccc4OC)sc3c2)ccn1` [Example 328, (S)-4-(2-(1-(2-methoxyphenyl)ethylamino)benzo[d]thiazol-6-yloxy)-N-methylpicolinamide], the inhibition at 1 µM [1] is reported as 100%, the inhibition at 1 µM ([2]; HEK293H cells) is reported as 80% and the inhibition at 1 µM (kinase domain of cKIT) is reported as 14%. For the same compound, the inhibition at 1 µM (kinase domain of PDGFRβ) was 0% and the inhibition at 1 µM ([3]; MCSF dependent MNFS60 cells) was 63%.

For `CNC(=O)c1cc(Oc2ccc3nc(NCC4CCCCCC4)oc3c2)ccn1` [Compound 101, 4-[2-(Cycloheptylmethyl-amino)-benzooxazol-6-yloxy]-pyridine-2-carboxylic acid methylamide], the inhibition at 1 µM [1] was 99%, the inhibition at 1 µM ([2]; HEK293H cells) was 91% and the inhibition at 1 µM (kinase domain of cKIT) was 85%. It also gave an inhibition at 1 µM (kinase domain of PDGFRβ) of 91% and an inhibition at 1 µM ([3]; MNFS60 cells) of 85%.

`CC(C)CONC(=O)c1cc(Oc2ccc3nc(N[C@@H]4CCCC[C@H]4O)sc3c2)ccn1` [Example 381, 4-(2-((1R,2R)-2-hydroxycyclohexylamino)benzo[d]thiazol-6-yloxy)-N-isobutoxypicolinamide] was tested, and the inhibition at 1 µM [1] was 100%, the inhibition at 1 µM ([2]; HEK293H cells) was 99% and the inhibition at 1 µM (kinase domain of cKIT) was 30%. For the same compound, the inhibition at 1 µM (kinase domain of PDGFRβ) was 20% and the inhibition at 1 µM ([3]; MCSF dependent MNFS60 cells) was 100%.

`CCc1nc(-c2cc(Oc3ccc4nc(N[C@@H]5CCCC[C@H]5O)sc4c3)ccn2)[nH]c1CC` [Example 266, (1R,2R)-2-(6-(2-(4,5-diethyl-1H-imidazol-2-yl)pyridin-4-yloxy)benzo[d]thiazol-2-ylamino)cyclohexanol] gave an inhibition at 1 µM ([1]; compounds of Table 3) of 100%, an inhibition at 1 µM ([2]; compounds of Table 3) of 94% and an inhibition at 1 µM (kinase domain of cKIT; compounds of Table 3) of 18%. The inhibition at 1 µM (kinase domain of PDGFRβ; compounds of Table 3) was 21% and the inhibition at 1 µM ([3]; compounds of Table 3) was 100%.

For `Cc1nc(-c2cc(Oc3ccc4nc(N[C@@H]5CCCC[C@H]5O)sc4c3)ccn2)[nH]c1C` [Example 232, (1R,2R)-2-(6-(2-(4,5-dimethyl-1H-imidazol-2-yl)pyridin-4-yloxy)benzo[d]thiazol-2-ylamino)cyclohexanol], the inhibition at 1 µM ([1]; compounds of Table 3) was 100%, the inhibition at 1 µM ([2]; compounds of Table 3) was 99% and the inhibition at 1 µM (kinase domain of cKIT; compounds of Table 3) was 34%. The inhibition at 1 µM (kinase domain of PDGFRβ; compounds of Table 3) was 64% and the inhibition at 1 µM ([3]; compounds of Table 3) was 100%.
